Assay [1] concerns the target Vascular endothelial growth factor receptor 1 (Homo sapiens, UniProt P17948). It counts as cell-based. Conditions: huvec.
In a further assay the target is T1, Endothelin-1 receptor (Homo sapiens, UniProt P25101).
T1 sequence (P25101 whole entry): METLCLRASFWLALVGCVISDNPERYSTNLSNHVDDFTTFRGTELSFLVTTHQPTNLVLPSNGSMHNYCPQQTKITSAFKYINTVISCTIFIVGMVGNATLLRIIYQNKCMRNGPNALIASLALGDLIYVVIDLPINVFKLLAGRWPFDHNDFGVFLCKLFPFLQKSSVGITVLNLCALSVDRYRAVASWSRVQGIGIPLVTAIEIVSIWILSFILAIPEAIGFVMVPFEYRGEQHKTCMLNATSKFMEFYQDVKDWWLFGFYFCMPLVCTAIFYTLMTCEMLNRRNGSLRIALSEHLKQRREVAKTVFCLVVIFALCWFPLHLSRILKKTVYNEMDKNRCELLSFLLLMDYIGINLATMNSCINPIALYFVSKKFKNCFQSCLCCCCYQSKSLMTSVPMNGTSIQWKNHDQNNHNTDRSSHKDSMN
It counts as cell membranes, Membrane. The note with it: cho-k1.

The target of the next assay is T2, Adenosine receptor A1 (Homo sapiens, UniProt P30542).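 Also: radioligand binding assay at the adenosine A1 receptor, with DPCPX serving as the labelled ligand.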
T2 sequence (P30542 whole entry): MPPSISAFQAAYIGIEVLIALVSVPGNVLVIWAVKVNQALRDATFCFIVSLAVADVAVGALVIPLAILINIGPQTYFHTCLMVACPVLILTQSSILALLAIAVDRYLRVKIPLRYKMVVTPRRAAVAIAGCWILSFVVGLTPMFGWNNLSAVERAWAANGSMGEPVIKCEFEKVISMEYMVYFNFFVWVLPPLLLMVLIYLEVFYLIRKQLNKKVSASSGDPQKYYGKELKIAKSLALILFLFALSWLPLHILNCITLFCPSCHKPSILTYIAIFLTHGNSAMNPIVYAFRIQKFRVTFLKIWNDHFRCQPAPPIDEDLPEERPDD
It counts as cell membranes, CHO, Membrane. The note with it: cho.

The target of assay [2] is Protein phosphatase 3 catalytic subunit alpha (Homo sapiens, UniProt Q08209). More on the design: species or system Escherichia coli.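 Also: inhibition of calcineurin (PP2B) enzyme activity, measured with DiFMUP as the substrate.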
The target of another assay is Cannabinoid receptor 1 (Homo sapiens, UniProt P21554). It counts as cell membranes, Chem-1, Membrane. The note with it: chem-1.
The target of the next assay is T3, Adenosine receptor A3 (Homo sapiens, UniProt P0DMS8).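 Also: radioligand binding assay with AB-MECA serving as the labeled ligand.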
T3 sequence (P0DMS8 whole entry): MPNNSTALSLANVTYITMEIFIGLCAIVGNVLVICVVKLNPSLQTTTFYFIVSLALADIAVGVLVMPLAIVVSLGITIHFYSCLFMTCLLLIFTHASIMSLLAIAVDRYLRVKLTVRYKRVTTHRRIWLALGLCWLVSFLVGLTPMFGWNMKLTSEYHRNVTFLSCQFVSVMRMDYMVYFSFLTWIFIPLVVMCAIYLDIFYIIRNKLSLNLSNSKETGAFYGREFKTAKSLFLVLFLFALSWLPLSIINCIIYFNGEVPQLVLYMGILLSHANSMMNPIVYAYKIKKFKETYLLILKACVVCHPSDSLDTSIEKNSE
It counts as cell membranes, CHO-K1, Membrane.

Assay [3] concerns the target T4, Vasoactive intestinal polypeptide receptor 1 (Homo sapiens, UniProt P32241).
T4 sequence (P32241 whole entry): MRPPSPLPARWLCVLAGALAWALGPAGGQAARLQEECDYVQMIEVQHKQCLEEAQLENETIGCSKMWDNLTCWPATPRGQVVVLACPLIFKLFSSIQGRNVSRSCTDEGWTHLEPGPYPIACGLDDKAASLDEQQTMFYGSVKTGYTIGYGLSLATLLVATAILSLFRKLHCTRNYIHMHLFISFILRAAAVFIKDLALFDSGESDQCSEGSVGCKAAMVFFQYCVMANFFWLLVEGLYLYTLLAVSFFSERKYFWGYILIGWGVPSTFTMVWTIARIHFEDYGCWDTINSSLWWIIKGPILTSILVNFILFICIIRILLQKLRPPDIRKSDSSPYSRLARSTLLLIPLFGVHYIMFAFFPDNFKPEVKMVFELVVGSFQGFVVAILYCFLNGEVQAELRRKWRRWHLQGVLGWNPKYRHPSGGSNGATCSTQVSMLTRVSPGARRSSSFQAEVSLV
It is filed as cell membranes, Membrane. Conditions: ht-29.

The target of a further assay is Substance-P receptor (Homo sapiens, UniProt P25103). It is filed as cell membranes, Membrane. Conditions: cho.

pIC50, pKi: −log10 of the molar value.

Our source for the IC50 and Ki values is ChEMBL document CHEMBL1909046, “DrugMatrix in vitro pharmacology data”.

The pIC50 is the negative decadic logarithm of the IC50, by convention in mol/L. As usually defined, the pKi is −log10 of the Ki, conventionally taken in molar units.
Also: in other assays of this panel Not Active means under 50% inhibition at 10 µM.

Sequence of Substance-P receptor (P25103 whole entry): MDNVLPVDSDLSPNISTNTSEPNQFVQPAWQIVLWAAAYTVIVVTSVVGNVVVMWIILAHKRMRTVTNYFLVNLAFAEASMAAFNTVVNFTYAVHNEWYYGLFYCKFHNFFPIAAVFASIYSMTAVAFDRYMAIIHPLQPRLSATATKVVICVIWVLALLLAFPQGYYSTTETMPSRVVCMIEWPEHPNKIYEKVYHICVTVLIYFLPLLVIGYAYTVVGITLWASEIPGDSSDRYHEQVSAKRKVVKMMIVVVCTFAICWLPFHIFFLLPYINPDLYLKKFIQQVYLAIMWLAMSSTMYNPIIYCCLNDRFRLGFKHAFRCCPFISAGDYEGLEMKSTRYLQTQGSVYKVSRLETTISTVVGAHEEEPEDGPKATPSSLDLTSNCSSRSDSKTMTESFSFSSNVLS
Sequence of Vascular endothelial growth factor receptor 1 (P17948 whole entry): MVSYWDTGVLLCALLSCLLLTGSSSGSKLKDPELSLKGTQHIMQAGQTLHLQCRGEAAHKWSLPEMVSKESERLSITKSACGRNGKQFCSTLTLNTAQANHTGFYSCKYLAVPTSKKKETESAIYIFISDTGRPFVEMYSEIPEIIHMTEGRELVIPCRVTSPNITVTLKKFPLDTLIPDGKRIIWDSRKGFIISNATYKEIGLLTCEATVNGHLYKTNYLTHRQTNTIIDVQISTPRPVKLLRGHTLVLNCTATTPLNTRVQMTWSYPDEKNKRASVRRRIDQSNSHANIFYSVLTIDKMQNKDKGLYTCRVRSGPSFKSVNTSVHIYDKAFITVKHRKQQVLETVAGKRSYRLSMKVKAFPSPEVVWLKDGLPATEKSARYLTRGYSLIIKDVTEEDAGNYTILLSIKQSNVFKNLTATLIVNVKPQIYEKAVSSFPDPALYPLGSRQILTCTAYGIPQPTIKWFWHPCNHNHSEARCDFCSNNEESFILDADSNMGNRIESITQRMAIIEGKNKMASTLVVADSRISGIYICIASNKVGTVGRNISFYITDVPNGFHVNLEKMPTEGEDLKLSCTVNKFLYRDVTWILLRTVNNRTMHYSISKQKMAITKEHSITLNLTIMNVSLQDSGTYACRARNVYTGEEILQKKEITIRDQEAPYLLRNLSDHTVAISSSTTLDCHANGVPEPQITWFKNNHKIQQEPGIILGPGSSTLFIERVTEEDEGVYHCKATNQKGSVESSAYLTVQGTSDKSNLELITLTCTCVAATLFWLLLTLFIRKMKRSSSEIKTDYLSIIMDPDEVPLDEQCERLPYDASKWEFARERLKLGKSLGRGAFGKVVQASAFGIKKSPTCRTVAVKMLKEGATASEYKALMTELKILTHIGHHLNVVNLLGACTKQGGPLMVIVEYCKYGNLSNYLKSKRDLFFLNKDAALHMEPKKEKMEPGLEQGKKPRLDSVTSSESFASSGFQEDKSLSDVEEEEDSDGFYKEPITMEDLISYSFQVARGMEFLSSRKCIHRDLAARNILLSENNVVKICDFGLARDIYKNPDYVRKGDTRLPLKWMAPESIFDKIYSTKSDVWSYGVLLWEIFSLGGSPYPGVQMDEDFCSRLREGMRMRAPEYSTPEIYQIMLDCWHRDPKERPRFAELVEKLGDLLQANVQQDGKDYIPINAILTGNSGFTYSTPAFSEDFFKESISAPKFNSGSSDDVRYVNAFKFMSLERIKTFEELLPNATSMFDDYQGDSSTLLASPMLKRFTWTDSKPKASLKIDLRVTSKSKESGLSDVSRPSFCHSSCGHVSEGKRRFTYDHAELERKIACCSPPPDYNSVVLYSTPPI
Sequence of Cannabinoid receptor 1 (P21554 whole entry): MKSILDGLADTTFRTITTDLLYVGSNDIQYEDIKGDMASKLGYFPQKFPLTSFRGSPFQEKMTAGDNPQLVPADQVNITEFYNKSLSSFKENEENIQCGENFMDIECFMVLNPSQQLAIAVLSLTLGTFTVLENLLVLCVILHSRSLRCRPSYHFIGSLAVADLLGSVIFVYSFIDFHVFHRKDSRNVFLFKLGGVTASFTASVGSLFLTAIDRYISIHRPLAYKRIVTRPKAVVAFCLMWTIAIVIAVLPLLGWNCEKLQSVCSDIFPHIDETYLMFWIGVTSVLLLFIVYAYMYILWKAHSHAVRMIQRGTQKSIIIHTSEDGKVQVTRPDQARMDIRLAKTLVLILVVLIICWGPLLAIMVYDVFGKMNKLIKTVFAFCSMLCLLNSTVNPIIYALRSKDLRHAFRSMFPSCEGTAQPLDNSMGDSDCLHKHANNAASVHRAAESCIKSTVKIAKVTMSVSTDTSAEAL

For the compound `CN(C)CCC=C1c2ccccc2COc2ccccc21` [DOXEPIN], the IC50 entry (in assay [1]; against Endothelin-1 receptor; on Adenosine receptor A1; in assay [2]; against Cannabinoid receptor 1; at Adenosine receptor A3 (cho-k1)) was “Not Active” in each case. Also, the IC50 entry (in assay [3]; at Substance-P receptor) was “Not Active” each time.

Turning to `C=CCc1ccc2c(c1)OCO2` [SAFROLE], the IC50 entry (in assay [1]; against Endothelin-1 receptor; on Adenosine receptor A1; in assay [2]; against Cannabinoid receptor 1; at Adenosine receptor A3 (cho-k1)) was “Not Active” throughout. The IC50 result (in assay [3]; against Substance-P receptor) was “Not Active” each time.

As for `O=[As][O-].[Na+]` [SODIUM ARSENITE], the IC50 result (in assay [1]; against Endothelin-1 receptor; on Adenosine receptor A1; in assay [2]; on Cannabinoid receptor 1; against Adenosine receptor A3 (cho-k1)) was “Not Active” throughout. In addition, the IC50 entry (in assay [3]; against Substance-P receptor) was “Not Active” throughout.

In the case of `Cc1cn([C@H]2C=C[C@@H](CO)O2)c(=O)[nH]c1=O` [STAVUDINE], the IC50 result (in assay [1]; at Endothelin-1 receptor; against Adenosine receptor A1; in assay [2]; at Cannabinoid receptor 1; on Adenosine receptor A3 (cho-k1)) was “Not Active” each time. Further, the IC50 entry (in assay [3]; on Substance-P receptor) was “Not Active” in each case.

Regarding `COC(=O)Nc1nc2ccc(C(=O)c3ccccc3)cc2[nH]1` [MEBENDAZOLE], the IC50 result (in assay [1]; against Endothelin-1 receptor; against Adenosine receptor A1; in assay [2]; against Cannabinoid receptor 1; on Adenosine receptor A3 (cho-k1)) was “Not Active” throughout. Moreover, the IC50 entry (in assay [3]; on Substance-P receptor) was “Not Active” each time.

In the case of `CC[C@H](C)C(=O)O[C@H]1CCC=C2C=C[C@H](C)[C@H](CC[C@@H]3C[C@@H](O)CC(=O)O3)[C@H]21` [MEVASTATIN], the IC50 result (in assay [1]; at Endothelin-1 receptor; against Adenosine receptor A1; in assay [2]; against Cannabinoid receptor 1; against Adenosine receptor A3 (cho-k1)) was “Not Active” in each case. Also, the IC50 result (in assay [3]; against Substance-P receptor) was “Not Active” throughout.

For the compound `O=C(OC[C@H]1O[C@@H](OC(=O)c2cc(O)c(O)c(OC(=O)c3cc(O)c(O)c(O)c3)c2)[C@H](OC(=O)c2cc(O)c(O)c(OC(=O)c3cc(O)c(O)c(O)c3)c2)[C@@H](OC(=O)c2cc(O)c(O)c(OC(=O)c3cc(O)c(O)c(O)c3)c2)[C@@H]1OC(=O)c1cc(O)c(O)c(OC(=O)c2cc(O)c(O)c(O)c2)c1)c1cc(O)c(O)c(OC(=O)c2cc(O)c(O)c(O)c2)c1` [TANNIC ACID], the IC50 entry (in assay [1]; at Endothelin-1 receptor; at Adenosine receptor A1; in assay [2]; at Cannabinoid receptor 1; against Adenosine receptor A3 (cho-k1)) was “Not Active” in each case. The IC50 result (in assay [3]; on Substance-P receptor) was “Not Active” in each case.

With LEAD(IV) ACETATE, the IC50 result (in assay [1]; on Endothelin-1 receptor; on Adenosine receptor A1; in assay [2]; against Cannabinoid receptor 1; at Adenosine receptor A3 (cho-k1)) was “Not Active” in each case. Further, the IC50 result (in assay [3]; at Substance-P receptor) was “Not Active” in each case. Moreover, the Ki result (in assay [1]; at Endothelin-1 receptor; at Adenosine receptor A1; in assay [2]; on Cannabinoid receptor 1; on Adenosine receptor A3 (cho-k1)) was “Not Active” throughout. The Ki result (in assay [3]; at Substance-P receptor) was “Not Active” each time.

For the compound `CC#C[C@]1(O)CC[C@H]2[C@@H]3CCC4=CC(=O)CCC4=C3[C@@H](c3ccc(N(C)C)cc3)C[C@@]21C` [MIFEPRISTONE], the IC50 result (in assay [1]; against Endothelin-1 receptor; against Adenosine receptor A1; in assay [2]; on Cannabinoid receptor 1; against Adenosine receptor A3 (cho-k1)) was “Not Active” in each case. The IC50 entry (in assay [3]; on Substance-P receptor) was “Not Active” in each case.

Turning to `Cc1[nH]c(=O)c(C#N)cc1-c1ccncc1` [MILRINONE], the IC50 result (in assay [1]; at Endothelin-1 receptor; against Adenosine receptor A1; in assay [2]; on Cannabinoid receptor 1; on Adenosine receptor A3 (cho-k1)) was “Not Active” throughout. The IC50 result (in assay [3]; on Substance-P receptor) was “Not Active” throughout.

For the compound `CCN(CC)N=O` [N-NITROSODIETHYLAMINE], the IC50 entry (in assay [1]; against Endothelin-1 receptor; against Adenosine receptor A1; in assay [2]; against Cannabinoid receptor 1; against Adenosine receptor A3 (cho-k1)) was “Not Active” in each case. Besides, the IC50 entry (in assay [3]; on Substance-P receptor) was “Not Active” throughout.

On to `Cc1ccc(S(=O)(=O)NC(=O)NN2CCCCCC2)cc1` [TOLAZAMIDE], for which the IC50 entry (in assay [1]; against Endothelin-1 receptor; against Adenosine receptor A1; in assay [2]; against Cannabinoid receptor 1; on Adenosine receptor A3 (cho-k1)) was “Not Active” each time. The IC50 result (in assay [3]; on Substance-P receptor) was “Not Active” each time.

Regarding `CC(O)C(=O)O` (stereo not given) [LACTIC ACID], the IC50 entry (in assay [1]; against Endothelin-1 receptor; on Adenosine receptor A1; in assay [2]; against Cannabinoid receptor 1; against Adenosine receptor A3 (cho-k1)) was “Not Active” each time. The IC50 result (in assay [3]; on Substance-P receptor) was “Not Active” in each case.

Turning to `CS(=O)(=O)c1ccc(C2=C(c3ccccc3)C(=O)OC2)cc1` [ROFECOXIB], the IC50 result (in assay [1]; against Endothelin-1 receptor; against Adenosine receptor A1; in assay [2]; at Cannabinoid receptor 1; at Adenosine receptor A3 (cho-k1)) was “Not Active” each time. Further, the IC50 entry (in assay [3]; at Substance-P receptor) was “Not Active” throughout.

Turning to `CCOC(=O)C1=C(C)NC(C)=C(C(=O)OCC)C1c1ccccc1/C=C/C(=O)OC(C)(C)C` [LACIDIPINE], the IC50 result (in assay [1]; on Endothelin-1 receptor; on Adenosine receptor A1; in assay [2]; at Cannabinoid receptor 1; in assay [3]) was “Not Active” in each case. Also, the IC50 entry on Substance-P receptor was “Not Active”. For the same compound, the pIC50 on Adenosine receptor A3 (read-out: IC50) is 5.39. At Adenosine receptor A3 (read-out: Ki), the negative logarithm of the Ki (pKi) was 5.64.

Turning to `CC(N)C12CC3CC(CC(C3)C1)C2` (stereo not given) [RIMANTADINE], the IC50 entry (in assay [1]; on Endothelin-1 receptor; on Adenosine receptor A1; in assay [2]; against Cannabinoid receptor 1; on Adenosine receptor A3 (cho-k1)) was “Not Active” throughout. The IC50 result (in assay [3]; on Substance-P receptor) was “Not Active” throughout.

`CC(Cl)(Cl)Cl` [TRICHLOROETHANE]: the IC50 result (in assay [1]; against Endothelin-1 receptor; against Adenosine receptor A1; in assay [2]; against Cannabinoid receptor 1; at Adenosine receptor A3 (cho-k1)) was “Not Active” in each case. For the same compound, the IC50 entry (in assay [3]; against Substance-P receptor) was “Not Active” in each case.
